Test results: PMC8836561, “Poly-Lysine Dendritic Nanocarrier to Target Epidermal Growth Factor Receptor Overexpressed Breast Cancer for Methotrexate Delivery” (Materials, 2022)
“And” between values parts separate entries of the source, which are not always exact repeats. Equal values may be shown once.

What was measured:
[1] = test system: MDA-MB-231 (EGFR overexpressed) cells; assay: Receptor binding ability by flow cytometry, MDA-MB-231; assay type: cell-based; conditions: fluorescein MTX 5 µg/mL or fluorescein MTX-conjugated system 8.6 µg/mL (equivalent MTX), 24 h
Description: (§1) Then fluorescein MTX (5 µg/mL) and fluorescein MTX-conjugated systems (8.6 µg/mL; having equivalent MTX concentrations) were added to each well and incubated for 24 h. After incubation, the cells were trypsinized and analyzed by flow cytometry. The cells without MTX or DDS treatment were taken as the control.

[2] = test system: SiHa (EGFR negative) cells; assay: Receptor binding ability by flow cytometry, SiHa; assay type: cell-based; conditions: fluorescein MTX 5 µg/mL or fluorescein MTX-conjugated system 8.6 µg/mL (equivalent MTX), 24 h
Description: as §1

MDA-MB-231 cells [3] = assay: Cytotoxicity by MTT assay, MDA-MB-231; assay type: cell-based; conditions: MDA-MB-231 (receptor positive), MTX 5 µg/mL or nanocarrier system at equivalent drug concentration (8.6 µg/mL), 48 h, triplicate
Description: (§2) The cytotoxic efficacy of MTX–G–P4LDN–E2 was analyzed by an MTT assay. The cells were seeded in a 96-well plate at a density of 5000 cells per well. […] After 48 h of incubation, the cells were washed twice with 1X PBS, followed by the addition of MTT reagent (100 μL; 5 mg/mL in PBS) and 100 μL serum-free media to all wells and incubated for 3 h. Then DMSO (100 µL) was added to solubilize the formazan crystals, formed in viable cells. After 20 min, the optical density (OD) was measured at 570 nm using a microplate reader (BioRad). The percentage cell viability was calculated as 100 percentage cytotoxicity, where: % cytotoxicity=O.D of control−O.D of test /O.D of control[…]

SiHa cells [4] = assay: Cytotoxicity by MTT assay, SiHa; assay type: cell-based; conditions: SiHa (receptor negative), MTX 5 µg/mL or nanocarrier system at equivalent drug concentration (8.6 µg/mL), 48 h, triplicate
Description: as §2

MDA-MB-231 cells [5] = assay: Cell cycle analysis by flow cytometry (propidium iodide), MDA-MB-231; assay type: cell-based; conditions: MDA-MB-231, 24 h incubation, FACS
Description: (§3) The cell cycle analysis was conducted by flow cytometry using the manufacturer’s protocol. Briefly, MDA-MB-231 and SiHa cells (1 × 10^5cells/well) were incubated with MTX and MTX–G–P4LDN–E2 for 24 h, trypsinized, and centrifuged to collect the pellet. The cells were then fixed with pre-cooled 70% ethanol at 4 °C for 45 min. After fixation, the pellet was collected carefully after centrifugation at 850× g for 5 min. It was then washed twice with 1X PBS, and 50 μL RNase (100 μg/mL) was added and incubated for 45 min at 37 °C. Then, the cells were washed with 1X PBS and stained with propidium iodide (100 μL, 50 μg/mL) for 10 min. The cellular DNA was analyzed by flow cytometer, and the percentage of cells in each phase of the cell cycle was analyzed by BD FACS Diva software.

SiHa cells [6] = assay: Cell cycle analysis by flow cytometry (propidium iodide), SiHa; assay type: cell-based; conditions: 24 h incubation, FACS
Description: as §3

MDA-MB-231 tumor = assay: Anti-tumor efficacy in MDA-MB-231 tumor-bearing NOD-SCID mice; assay type: in vivo; conditions: female NOD-SCID mice, tail vein, 5 times for 20 days
Description: For analyzing the efficacy of the nanocarrier systems, fifteen male and fifteen female NOD-SCID mice were assigned to three groups each (n = 3 in first group and n = 6 in second and third groups). Tumor was implanted by injecting cells subcutaneously in the dorsolateral flank with a concentration of 5 × 10^6 MDA-MB-231 cells to female NOD-SCID mice. When the volume of tumor reached 500–1000 mm^3, the first group of animals, serving as the control group, was given PBS (5 mL/kg body weight). The second group was given free-drug MTX (20 mg/kg) through the tail vein. The third group received MTX–G–P4LDN–E2 (35 mg/kg, equivalent to the MTX concentration) through the tail vein, and the treatment was given to the mice 5 times for 20 days.
The tumor volume and body weight of the animals were measured before each injection. The body weight and tumor volume on the final day (24th day) was also calculated. A vernier caliper was used to measure the tumor, and the tumor volume was calculated using the formula: Tumor volume (mm^3)=(length in mm)×(width in mm)^2/2
The treatment was started when the tumor volume reached 500–1000 mm^3. There were 3 groups (n = 3 for control group and n = 6 for treatment groups). First group received PBS (5 mL/kg body weight) was treated as the control. […] On every injection day, the tumor volume as well as the body weight of the animals were measured.

[7] = test system: MDA-MB-231 (EGFR overexpressed) cells; assay: Functional evaluation by confocal microscopy, MDA-MB-231; assay type: cell-based; conditions: fluorescein MTX 5 µg/mL or conjugated system 8.6 µg/mL, 24 h
Description: (§4) MDA-MB-231 (EGFR overexpressed) and SiHa (EGFR negative) cells were grown on coverslips inside the 6-well plates, and the receptor binding ability of MTX–G–P4LDN–E2 was analyzed by confocal microscopy. Fluorescein methotrexate (5 µg/mL) and fluorescein MTX conjugated system (8.6 µg/mL; having equivalent methotrexate concentrations) were added to the wells and incubated for 24 h. The cells without MTX or DDS treatment were taken as the control. Then, Hoechst 33342 (10 µg/mL) was added and incubated for 15 min. The cells were observed under a confocal laser scanning microscope at suitable magnifications.

[8] = test system: SiHa (EGFR negative) cells; assay: Functional evaluation by confocal microscopy, SiHa; assay type: cell-based; conditions: fluorescein MTX 5 µg/mL or conjugated system 8.6 µg/mL, 24 h
Description: as §4

MDA-MB-231 cells [9] = assay: In vitro binding of rhodamine B-conjugated peptides, MDA-MB-231; assay type: cell-based; conditions: MDA-MB-231, 2 h, 37 °C, flow cytometry and confocal imaging
Description: Figure S4. Binding activities of rho B-conjugated peptides after incubating with MDA-MB-231 cells for 2 hours at 37°C. a) Untreated control MDA-MB-231 cell. MDA-MB-231 cells binding with b) E1, c) E2, d) E3, e) E4, and f) E5. g) Binding affinity percentages of rho B- conjugated peptides. […]
Figure S6. Internalization of peptides in MDA -MB-231 cells. MDA-MB-231 (EGFR overexpressed) cells were incubated with E1 to E5 peptides (50 µM) for 2 hours at 37°C. Rho-B alone was given as the control. The cells were nuclear stained […]
(1 picture or pasted object on this page, not shown here)

| Compound | Binding ability (% of cells, P2) [1] | Binding ability (% of cells, P2) [2] | Cytotoxicity (MDA-MB-231 cells [3]) | Cytotoxicity (SiHa cells [4]) | Percentage of cells in G0 (MDA-MB-231 cells [5]) | Percentage of cells in G1 (MDA-MB-231 cells [5]) | Percentage of cells in G2-M (MDA-MB-231 cells [5]) | Percentage of cells in S (MDA-MB-231 cells [5]) | Percentage of cells in G0 (SiHa cells [6]) | Percentage of cells in G1 (SiHa cells [6]) | Percentage of cells in G2-M (SiHa cells [6]) | Percentage of cells in S (SiHa cells [6]) | Average tumor volume at the end of the treatment (MDA-MB-231 tumor; MTX 20 mg/kg or MTX–G–P4LDN–E2 35 mg/kg (equivalent MTX), day 25, n = 6, mean ± SD, control 2890 ± 85.440) | Reduction in tumor volume compared to control (MDA-MB-231 tumor; MTX 20 mg/kg or MTX–G–P4LDN–E2 35 mg/kg, day 25, n = 6) | Binding (fluorescence) in confocal images [7] | Binding (fluorescence) in confocal images [8] | Binding efficacy of the short peptides in vitro (MDA-MB-231 cells [9]) |
| --- | --- | --- | --- | --- | --- | --- | --- | --- | --- | --- | --- | --- | --- | --- | --- | --- | --- |
| CN(Cc1cnc2nc(N)nc(N)c2n1)c1ccc(C(=O)N[C@@H](CCC(=O)O)C(=O)O)cc1 [MTX, methotrexate] | 99.6% and > 99% | 82.4% | 63% | 57% | 9% | 52.1% | 14.9% | 19.1% | 14.4% | 64.3% | 10.7% | 8.8% | 661.8 ± 209.067 mm^3 | 77.2% | bound with the MDA-MB-231 cells similarly | only the free drug showed fluorescence |  |
| ARSHVGYTGAR [E2, EGFR-specific short peptide …] |  |  |  |  |  |  |  |  |  |  |  |  |  |  |  |  | highest binding efficacy |
